Experimental data published in patent US11191811B2, “Osteocalcin as a treatment for frailty associated with aging” (THE TRUSTEES OF COLUMBIA UNIVERSITY IN THE CITY OF NEW YORK, priority 2014, dated 2021).
“Also recorded” adds a separate entry of the source.

Assays:
WT mice = test: Endurance exercise on treadmill until exhaustion; type: in vivo, mouse; conditions: for muscle function / exercise capacity of young and old WT mice: 3 to 15 month-old WT mice
Experimental: (§1) First, whether a single intraperitoneal injection of uncarboxylated mouse osteocalcin (osteocalcin) (100 ng/g of body weight) immediately before exercise would improve the exercise capacity of 3 month-old WT mice was tested.
(§2) To determine if osteocalcin has the same ability in older mice, 12 and 15 month-old mice that have low circulating osteocalcin levels were injected prior to running with 500 ng/g of body weight of osteocalcin in order to raise their circulating levels substantially. […] This was due to an increase in the phosphorylation of Akt, AMPK and HSL, as well as in glucose uptake, that occurred to a greater extent in oxidative muscles that express Gprc6a at the highest level, than in glycolytic muscles (FIG. 31C-F). Whether chronic delivery of osteocalcin through mini-pumps (90 ng/hour) for 28 days would increase muscle function in 9 month old mice that have the lowest circulating osteocalcin levels was also tested. […] This improved ability to perform exercise was caused in part by an increase in the expression in muscle of the fatty acid transporter Fatp1 and an activation of the Akt pathway (FIG. 31H-).
(§3) For exercise studies, all mice were trained before the tests to run on a treadmill (Harvard apparatus) for three days (10 minutes/day). The day of the test, mice were acclimated to the treadmill for 5 minutes followed by 10 minutes running at a constant speed of 17 cm/s, then a gradual increase in the speed up to 30 cm/s. Next, mice were run until exhaustion as defined by the number of times a mouse fell off to the electric grid during one minute (>15). Measurements of muscle strength were carried out using a grip strength meter (Columbus instruments). Values are expressed as the average of five single measurements, taken one minute apart from each other. For all biochemical and metabolic analyses performed, blood/tissues were collected and processed either at rest or at the end of a 40 min run (30 cm/s).

Gprc6aMck−/− mice = test: Endurance exercise on treadmill until exhaustion; type: in vivo, mouse; conditions: Gprc6aMck−/− mice treated with Ocn
Experimental: as §1, §3

Gprc6a−/− myotubes = test: Gene expression (qPCR) in myotubes treated with Ocn; type: cell-based, mouse
Experimental: (§4) Serum osteocalcin, PINP, CTX, and insulin levels were measured using ELISA assays. Blood glucose level was measured using an Accu-Check glucometer. Urine 3-MHT was measured as previously described (Aranibar et al., 2011, Anal. Biochem. 410:84-91). Determination of cAMP accumulation was performed using a commercial kit (R&D). For gene expression, 1 μg of total RNA was reverse transcribed into cDNA. qPCR analyses were performed using a SYBER green master mix (Applied Biosciences) and a CFX-Connect real time PCR (Bio-Rad). Relative expression levels of each gene were normalized to that of Hprt or Gapdh. For in situ hybridization, muscle was frozen in liquid N2-cooled methylbutane. Samples were sectioned at 10 μm using a cryostat. In situ hybridization was performed with a DIG-labeled riboprobe as previously described (Oury et al., 2011, Cell 144:796-809).
Culture of skeletal muscle myoblasts from 7 day-old mice was performed as described (Gharaibeh et al., 2008, Nature Protocols 3:1501-1509). Myoblasts were differentiated into myotubes for 3-4 days in a medium containing 5% horse serum. Muscle fibers were isolated from flexor digitorum brevis muscle. Muscles were dissected with DMEM 2% collagenase for 2 hours at 37° C., in a 5% CO2 incubator. Muscle fibers were disaggregated from the tissue using a wide bore pipet and plated in matrigel-coated plates at approximately 50% confluence. […]

muscles of WT mice = test: Western blot of Akt, AMPK and HSL phosphorylation in muscles of WT mice given Ocn; type: in vivo, mouse
Experimental: (§5) FIG. 31. Osteocalcin treatment increases muscle function in young and old WT mice. (A-B) Performance during endurance exercise of 3 month-old WT, Gprc6af/f and Gprc6aMck−/− female mice treated with Ocn (n=6-10 per group). (C) Performance during endurance exercise of 12 and 15 month-old WT female mice treated with Ocn (n=6-10 per group). (D) Western blot analysis of Akt phosphorylation (Ser473) in muscles of WT mice injected with Ocn (500 ng/g) after a single bout of exercise. (E) Western blot analysis of AMPK phosphorylation ([…]) in muscles of WT mice injected with Ocn (500 ng/g) after a single bout of exercise. (F) Western blot analysis of HSL phosphorylation (Ser563) in muscles of WT mice injected with Ocn (500 ng/g) after a single bout of exercise. (G) Uptake of ^3H-2-DG in glycolytic (Gly—white quadriceps) and oxidative (Ox—red quadriceps) muscles after a single bout of exercise in 15 month-old WT mice receiving Ocn before running (n=5 per group). (H) Performance during endurance exercise of 10 month-old WT mice receiving Ocn for 28 days (n=7 per group). (I) Expression of Cd36, Fatp1 and Cpt1b in gastrocnemius of 10 month-old WT mice receiving Ocn for 28 days (n=7 per group). (J) Western blot analysis of Akt phosphorylation (Ser473) in muscles of WT mice receiving Ocn for 28 days (n=7 per group). (K) Schematic representation of how osteocalcin signaling in myofibers and IL-6 cooperate to increase exercise capacity.
as §2

muscle = test: Gene expression in muscle (qPCR); type: in vivo, mouse
Experimental: as §5
as §4, with “For in situ hybridization, muscle was frozen in liquid N2-cooled methylbutane. Samples were sectioned at 10 μm using a cryostat. In situ hybridization was performed with a DIG-labeled riboprobe as previously described (Oury et al., 2011, Cell 144:796-809).” left out

Osteocalcin−/− mice = test: Bronchoconstriction of Osteocalcin−/− mice, intracerebroventricular infusion; type: in vivo, mouse; conditions: intracerebroventricular infusions in Osteocalcin−/− mice
wild type mice = test: Body weight and gonadal fat pad mass during subcutaneous infusion; type: in vivo, mouse
Experimental: FIG. 4. Osteocalcin subcutaneous infusion decreases fat mass in wild-type mice. (A) Indicated doses of recombinant osteocalcin or PBS were infused subcutaneously for 28 days in wild-type mice. Body weight was recorded at indicated days. (B) Gonadal fat pad mass was measured after 28 days.
In another in vivo experiment, the effect of uncarboxylated osteocalcin on body weight and fat pad mass was monitored (FIG. 4). Wild type mice were infused subcutaneously for 28 days with PBS or uncarboxylated osteocalcin at 0.3, 1 or 3 ng/hour. […] Gonadal fat pad mass, measured after 28 days, decreased by about %18 with 3 ng/hour uncarboxylated osteocalcin treatment.

[1] = Crossing of the blood-brain barrier; conditions: stated without test description
[2] = WT mice injected with Ocn (500 ng/g), after a single bout of exercise, listed as osteocalcin
[3] = mini-pumps 90 ng/hour for 28 days

uncarboxylated osteocalcin: Recombinant uncarboxylated mouse osteocalcin, bacterially produced, purified on glutathione beads and cleaved from the GST subunit by thrombin (YLGASVPSPDPLEPTREQCELNPACDELSDQYGLKTAYKRIYGITI)
increase of time and distance run on the treadmill before exhaustion (WT mice; 3 month-old WT mice, single intraperitoneal injection 100 ng/g of body weight immediately before exercise): over 20%
muscle function / exercise capacity of young and old WT mice (WT mice; listed as Osteocalcin): increases
muscle function / exercise capacity of young and old WT mice (WT mice; listed as osteocalcin): can improve
time and distance run / exercise capacity of older mice (WT mice; 12 and 15 month-old mice, 500 ng/g of body weight injected prior to running): the exercise capacity of 3 month-old mice; also recorded: the same time and distance as 3 month-old untreated mice; also recorded: run like young mice
time and distance run on the treadmill before exhaustion (WT mice; mini-pumps 90 ng/hour for 28 days, 9 month old mice): significant increase
increase of distance run (WT mice; wild-type mice, simple injection while they run on a treadmill): 20%
exercise capacity of young mice (WT mice; young (3 month-old) WT mice, exogenous osteocalcin): increases; also recorded: sufficient to increase
muscle function (Gprc6aMck−/− mice): did not improve
expression of Il6 (Gprc6a−/− myotubes): not
phosphorylation of AMPK in muscle (muscles of WT mice; WT mice injected with Ocn (500 ng/g), after a single bout of exercise): increase
phosphorylation of Akt in muscle (muscles of WT mice; WT mice injected with Ocn (500 ng/g), after a single bout of exercise, listed as Osteocalcin): induced
phosphorylation of Akt in muscle (muscles of WT mice; [2]): increase
phosphorylation of HSL (Ser563) in muscle (muscles of WT mice; [2]): enhanced; also recorded: increase
Akt pathway in muscle (muscles of WT mice; [3]): activation
expression in muscles of Glut1 (muscle; at rest or after exercise): did not affect
expression in muscles of Glut4 (muscle; at rest or after exercise): did not affect
expression in muscle of Fatp1 (muscle; [3]): increase
bronchoconstriction (Osteocalcin−/− mice): do not correct
decrease of gonadal fat pad mass (wild type mice; 3 ng/hour, after 28 days): ~18%
body weight (wild type mice; 0.3, 1 or 3 ng/hour subcutaneously for 28 days, highest dose most effective): slightly reduced
fat mass (wild type mice; subcutaneous infusion 28 days (FIG. 4 title)): decreases
gonadal fat pad mass (wild type mice; the other doses (0.3, 1 ng/hour), 28 days): did not significantly decrease
crossing of the blood-brain barrier [1]: crosses
crossing of the blood-brain barrier ([1]; listed as undercarboxylated/uncarboxylated osteocalcin): can cross
